The record followed here is patent publication US9096586B2, “Therapeutic compounds” (Gilead Sciences, Inc., priority 2012, dated 2015).

pEC50: −log10 of the molar value.

One may read the pEC50 as the negative decadic logarithm of the EC50, by convention in mol/L. Read a high pEC50 as a low EC50.

The subject of the experiment is HIV-IIIb. The experiment in a line: Test A: Antiviral Assays in MT4 Cells. The experiment is classed as cell-based. Particulars: Human immunodeficiency virus 1, IIIB, MT4, 120 h, MT-4 cells infected with HIV-IIIb (0.004 m.o.i.), 5 days incubation, CellTiter-Glo readout. How it is done:
Test A: Antiviral Assays in MT4 Cells
For the antiviral assay utilizing MT-4 cells, 0.4 μL of […] test concentration of 3-fold serially diluted compound in DMSO was added to 40 μL of cell growth medium (RPMI 1640, 10% FBS, 1% penicilline/Streptomycine, 1% L-Glutamine, 1% HEPES) in each well of 384-well assay plates (10 concentrations) in quadruplicate.
1 mL aliquots of 2×10e6 MT-4 cells are pre-infected for 1 and 3 hrs respectively, @ 37° C. with 25 uL (MT4) or of either cell growth medium (mock-infected) or a fresh 1:250 dilution of an HIV-IIIb concentrated ABI stock (0.004 m.o.i. for MT4 cells). Infected and uninfected cells are diluted in cell growth medium and 35 uL of 2000 (for MT4) cells is added to each well of the assay plates.
Assay plates were then incubated in a 37° C. incubator. After 5 days of incubation, 25 μl of 2× concentrated CellTiter-Glo™ Reagent (catalog #G7573, Promega Biosciences, Inc., Madison, Wis.) was added to each well of the assay plate. Cell lysis was carried out by incubating at room temperature for 2-3 min and then chemiluminescence was read using the Envision reader (PerkinElmer).
Accordingly, the compounds disclosed herein (e.g. compound of the invention) may be useful for treating the proliferation of the HIV virus, treating AIDS or delaying the onset of AIDS or ARC symptoms.
In general terms: ATP-based viability assays read luminescence as a measure of living cells.
For the compound `Cc1cc2nc(-c3cnc4[nH]cc(C)c4c3)sc2c(-c2ccc(Cl)cc2)c1[C@](C)(OC(C)(C)C)C(=O)O` [Compound 112, (S)-methyl 2-tert-butoxy-2-(7-(4-chlorophenyl)-5-methyl-2-(3-methyl-1H-pyrrolo[2,3-b]pyridin-5-yl)benzo[d]thiazol-6-yl)acetic acid], the pEC50 is 7.55.
The compound `Cc1cc2nc(-c3ccnc(-c4cnn(Cc5ccccc5)c4)c3)sc2c(-c2ccc(Cl)cc2)c1[C@H](OC(C)(C)C)C(=O)O` [Compound 150] gave a pEC50 of 7.04.
`Cc1cc2nc(N3CCC(Oc4ccccc4)C3)sc2c(-c2ccc(Cl)cc2)c1[C@H](OC(C)(C)C)C(=O)O` (stereo partly drawn) [Compound 126, (2S)-2-tert-butoxy-2-(7-(4-chlorophenyl)-5-methyl-2-(3-phenoxypyrrolidin-1-yl)benzo[d]thiazol-6-yl)acetic acid] gave a pEC50 of 6.14.
